Measured values published in paper PMC7822474, “Repurposing the McoTI-II Rigid Molecular Scaffold in to Inhibitor of ‘Papain Superfamily’ Cysteine Proteases” (Pharmaceuticals, 2020).
Where no end group is shown, it is not given here.

Key:
[1] = test system: papain; assay: Proteolytic activity assay, BSA digestion by papain on SDS-PAGE; type: biochemical; conditions: BSA 1.0 mg/mL, 0.1 M sodium acetate pH 5.5, 0.1% SDS, E:S 1:10, 40 °C, 8 min, preincubated with papain
Procedure: The protein substrate, BSA, at a concentration of 1.0 mg/mL in 0.1 M sodium acetate buffer (pH 5.5) containing 0.1% SDS was incubated with papain, papain preincubated with E-64, and papain preincubated with Mco-CPI protein. The papain enzyme used was pre-activated with 2 mM dithiothreitol. The ratio of enzyme to the substrate (E:S) was maintained at 1:10. The digestion was allowed to be carried at 40 °C for 8 min. This method was adapted from Zucker et al., 1985 [59]. The degradation products of each reaction were analysed on 12% SDS-PAGE gel.

[2] = test system: papain; conditions: E-64 and its derivatives; cited from earlier work
[3] = target: trypsin
[4] = test system: trypsin; assay: Inhibition of trypsin by recombinant McoTI-II (ZFR-AMC substrate); type: biochemical
[5] = test system: trypsin; conditions: cited from earlier work
Excerpt: McoTI-II is a stable cyclic peptide found in seeds of the plant Momordica cochinchinensis. It belongs to the trypsin inhibitor subfamily of cyclotides and has been the most preferred framework for grafting and engineering novel biological activities. […] A range of substitutions in the trypsin inhibitory reactive site (loop 1) and the P1 residue have been used to develop a series of McoTI-I analogs with specificity towards alternate proteases with moderate affinity. […] Therefore, we expect that a modification involving a backbone cyclization would lead to further improvement in the e ...

For `CC(C)C[C@H](NC(=O)[C@H]1O[C@@H]1C(=O)O)C(=O)NCCCCN=C(N)N` [E-64], the “inhibition of papain proteolytic activity on BSA (in words)” value [1] is given as “completely inhibit the proteolytic activity of papain with no digestion products observed on the gel” and the “IC50 against papain (in words)” value [2] is given as “nanomolar range”.
“McoTI-II (Momordica cochinchinensis trypsin inhibitor-II), recombinant protein with tags (from UniProt P82409 1-34) (natural protein)” gave an inhibition of trypsin activity on ZFR-AMC (fluorescence), 50 mM Tris-HCl pH 8.0, 50 mM NaCl, 5 mM CaCl2 [3] of 2.12 µM.
With “McoTI-II recombinant protein: McoTI-II protein with tags, recombinantly expressed as starting control (SGSDGGVCPKILKKCRRDSDCPGACICRGNGYCG; ends and bridges not checked; also: with tags (recombinant); UniProt P82409 1-34, looked up)” the “% trypsin inhibition, concentration dependence (in words)” value ([4]; Supplementary Figure S6E) was “An increase in % trypsin inhibition” and the IC50 ([4]; ZFR-AMC substrate, 50 mM Tris-HCl pH 8.0, 50 mM NaCl, 5 mM CaCl2, three technical replicates, read-out: IC50 against trypsin) was 2.12 µM.
In the case of “McoTI-II: stable cyclic peptide found in seeds of the plant Momordica cochinchinensis (cyclo(SGSDGGVCPKILKKCRRDSDCPGACICRGNGYCG); disulfide (positions not given here); ends not checked; also: three disulfides, pairing not given here; UniProt P82409 1-34, looked up)”, the “trypsin inhibition range (in words)” value ([5]; McoTI-II purified from plant sources or chemically synthesized as a cyclic molecule) is given as “sub-nM range” and the “trypsin inhibitory activity (in words)” value ([5]; natural McoTI-II) is given as “potent (sub-nM)”.
